From US5886190A, “Rapid synthesis and use of 18F-fluoromisonidazole and analogs” (priority 1997, dated 1999)

How the values were obtained:
hypoxic cells [1] = assay: Selectivity to hypoxic cells (PET imaging, autoradiograms, biodistribution); settings: in vivo
Method: (§1) The synthesis scheme for [^18 F]FETNIM is depicted in FIG. 6. Biodistribution studies of [^18 F]FETNIM were performed at 1, 2 and 4 hours in mammary tumor-bearing rats (10 μCi, iv, N=3/time interval). Autoradiograms were performed at 1 hour postinjection of [^18 F]FETNIM, and a comparison has been made with [^18 F]fluoromisonidazole (FMISO). Intratumoral oxygen tension measurements were performed using the Eppendorf computerized histographic system. Twenty to twenty-five pO2 measurements along each of 2 to 3 linear tracks were performed at 0.4 mm intervals on each tumor. PET imaging studies of [^18 F]FETNIM were performed in rabbits bearing V2 tumors (N=3, 4 mCI, iv) which were located on the right leg.
PET imaging was performed with a positron camera (Positron Corporation, Houston, Tex.). The tomograph has a field-of-view of 42 cm on transverse and 12 cm on coronal planes. The axial resolution on the reconstructed plane is 1.2 cm. […]
Female Fischer 344 rats (250-275 g) (Harlan, Inc., Indianapolis, Ind.) were inoculated with mammary tumor cells in the lumbar area using a 13762 tumor cell line (s.c. 10^5 cells/rat). […] The tissues were excised, weighed and counted for radioactivity. The percent of injected dose per gram of tissue weight was determined.

mammary tumor = assay: Autoradiographic studies in tumor-bearing rats; settings: 1 hour postinjection
Method: as §1
Female Fischer 344 mammary tumor-bearing rats (n=3) after receiving [^18 F]FETNIM (2 mCi, iv) were sacrificed at 1 h. […] The rats were sacrificed at 1 hour postinjection. The rat body was fixed in a carboxymethyl cellulose (4%) block. The frozen body in a block was mounted to a cryostat (LKB 2250 cryo-microtome, Ijamsville, Md.) and 40 μm coronal sections were made. The section was freeze dried, then mounted on a x-ray film (X-Omat AR, Kodak, Rochester, N.Y.) for 24 hours.

[2] = tested on: intracellular nitroreductases; settings: cited from earlier work
[3] = tested on: hypoxic elements within a tumor volume; assay: Patient studies of ^18 F-FMISO uptake in tumors; settings: in vivo
Excerpt: In patient studies, the hypoxic elements within a tumor volume was defined as regions with a threshold regional tumor to plasma (^18 F-FMISO) ratio of ≥1.4 by 2 or more hours after injection.

[4] = tested on: hypoxic elements within a tumor volume; settings: 2 or more hours after injection; cited from earlier work
[5] = type: in vivo, 70 Kg male (human)
Excerpt: The following Table summarizes the results of dosimetry calculation for radiation exposure to several […] tissues.
Dosimetry: Normal Tissue Dosimetry for ^18 F-FMISO

[6] = tested on: nasalpharyngeal cancer (NPC); assay: PET imaging of patients with nasalpharyngeal cancer; type: in vivo, human (patients); settings: 10 mCi
Method: PET imaging studies were performed on two patients with nasalpharyngeal cancer (NPC). […] After each patient had received 10 mCi of [^18 F]FMISO, eight consecutive 15-min scans were taken. […] Each patient was also administered [^18 F]FDG to ascertain the tumor region.

rats = settings: 2 mCi/Kg single dose; n=3; follow-up 5 days
Method: In addition, animal acute toxicity studies have been performed, rats (n=3) were administered 2 mCi/Kg as a single dose.

hypoxic cells [7] = settings: radiobiologically significant oxygen levels; cited from earlier work

SMILES: O=[N+]([O-])c1nccn1CC(O)C[18F] (stereo not shown) [[^18 F]FMISO, 3-[^18 F]Fluoro-1-(2'-nitro-1'-imidazoyl)-2-propanol]
- Selectivity to hypoxic cells (hypoxic cells [1]): selective to hypoxic cells
- Uptake in intestines and colon (mammary tumor): high uptake
- Differentiation of hypoxic versus necrotic regions in the tumor (mammary tumor; autoradiogram): could differentiate hypoxic versus necrotic regions in the tumor
- Metabolism [2]: metabolized by intracellular nitroreductases
- Feasibility of detecting hypoxia in human head and neck tumors [3]: feasibility of using ^18 F-FMISO to detect hypoxia in human head and neck tumors
- Threshold regional tumor to plasma ratio defining hypoxic elements [4]: ≥ 1.4
- Bladder wall dose relative to muscle dose ([5]; 70 Kg male, 0.1 mCi/Kg): about five times as much
- Liver and kidney dose relative to muscle dose ([5]; 70 Kg male, 0.1 mCi/Kg): nearly twice the muscle dose
- Total body musculature dose in a routine study ([5]; 70 Kg male, 0.1 mCi/Kg): 120 mrem
- Normal tissue dose, bladder ([5]; bladder, 7 mCi/70 Kg, n = 2): 570 mrad
- Normal tissue dosimetry, bladder ([5]; bladder, ± SD): 81.5 ± 47 mrad/mCi
- Normal tissue dose, kidney ([5]; kidney, 7 mCi/70 Kg, n = 3): 180 mrad
- Normal tissue dosimetry, kidney ([5]; kidney, ± SD): 25.8 ± 5.5 mrad/mCi
- Normal tissue dose, liver ([5]; liver, 7 mCi/70 Kg, n = 3): 190 mrad
- Normal tissue dosimetry, liver ([5]; liver, ± SD): 26.8 ± 9.7 mrad/mCi
- Normal tissue dose, muscle ([5]; muscle, 7 mCi/70 Kg, n = 6): 120 mrad
- Normal tissue dosimetry, muscle ([5]; muscle, ± SD): 16.8 ± 7.9 mrad/mCi
- Detection of hypoxic tumors by PET [6]: able to detect primary or metastatic hypoxic tumors
- PET tumor uptake, first patient ([6]; first patient): showed tumor uptake in the lymph node region
- PET finding, second patient ([6]; second patient): the recurrent primary tumor is hypoxic
- Acute toxicity (rats): All rats tolerated this dose without toxicity
- Selective binding to hypoxic cells (hypoxic cells [7]): bind selectively to hypoxic cells in vitro and in vivo
